Experimental data as given in ChEMBL document CHEMBL5465560, “Selectivity Literature for EUbOPEN Chemogenomic Library” (2024).
Values belong to the compound of their own block, whether it stands above or below them.

What was measured:
[1] = biological target: Fibroblast growth factor receptor 2 (Homo sapiens) (UniProt P21802); experiment: Selectivity interaction (KinaseProfiler screening (Millipore)) EUB0000601a FGFR2; conditions: at 3 µM
[2] = biological target: STE20-like serine/threonine-protein kinase (Homo sapiens, UniProt Q9H2G2); experiment: Selectivity interaction (KinomeScan (DiscoverX)) EUB0001079a SLK; conditions: at 1 µM
[3] = biological target: Ribosomal protein S6 kinase alpha-2 (Homo sapiens) (UniProt Q15349); experiment: Selectivity interaction (KinomeScan (DiscoverX)) EUB0001079a RPS6KA2; conditions: at 1 µM
[4] = biological target: Kappa-type opioid receptor (Homo sapiens, UniProt P41145); experiment: Selectivity interaction (GPCR panel (PDSP screen)) EUB0001079a OPRK1; conditions: at 10 µM
[5] = biological target: Mitogen-activated protein kinase kinase kinase 20 (Homo sapiens) (UniProt Q9NYL2); experiment: Selectivity interaction (KinomeScan (DiscoverX)) EUB0000607a MAP3K20; conditions: at 10 µM
[6] = biological target: Calcium/calmodulin-dependent protein kinase type II subunit delta (Homo sapiens) (UniProt Q13557); experiment: Selectivity interaction (SelectScreen profiling (Invitrogen)) EUB0000607a CAMK2D; conditions: at 2 µM
[7] = biological target: Mitogen-activated protein kinase kinase kinase 20 (Homo sapiens) (UniProt Q9NYL2); experiment: Selectivity interaction (KinomeScan (DiscoverX)) EUB0000595a MAP3K20; conditions: at 10 µM
[8] = biological target: T1, Histone-arginine methyltransferase CARM1 (Homo sapiens) (UniProt Q86X55); experiment: Selectivity interaction (Transferase panel (protein, RNA, and DNA methyltransferases. and EP300 (acetyltransferase))) EUB0000270b CARM1
T1 sequence (whole entry): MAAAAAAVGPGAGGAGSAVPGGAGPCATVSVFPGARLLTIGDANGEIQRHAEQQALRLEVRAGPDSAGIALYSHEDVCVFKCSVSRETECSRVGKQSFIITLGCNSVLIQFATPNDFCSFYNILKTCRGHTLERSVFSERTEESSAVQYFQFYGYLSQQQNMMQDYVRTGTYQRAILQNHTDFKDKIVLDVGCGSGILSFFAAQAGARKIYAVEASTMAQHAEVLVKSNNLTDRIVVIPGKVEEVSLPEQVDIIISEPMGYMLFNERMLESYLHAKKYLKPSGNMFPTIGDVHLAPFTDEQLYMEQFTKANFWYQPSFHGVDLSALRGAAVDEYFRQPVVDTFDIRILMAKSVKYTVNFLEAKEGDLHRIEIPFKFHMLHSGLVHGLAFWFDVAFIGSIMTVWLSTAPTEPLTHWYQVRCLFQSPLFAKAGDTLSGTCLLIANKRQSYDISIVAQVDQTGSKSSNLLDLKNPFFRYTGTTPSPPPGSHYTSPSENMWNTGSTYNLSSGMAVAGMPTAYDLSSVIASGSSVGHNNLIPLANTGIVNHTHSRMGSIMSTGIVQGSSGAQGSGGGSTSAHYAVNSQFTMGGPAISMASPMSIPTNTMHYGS

[9] = system: Fibroblast growth factor receptor 1 (Homo sapiens), P11362 [V561M]; experiment: (§1) Selectivity interaction (ProQinase) EUB0000171b FGFR1
[10] = biological target: Fibroblast growth factor receptor 1 (Homo sapiens, UniProt P11362); experiment: as §1
[11] = biological target: T2, Phosphorylase b kinase gamma catalytic chain, liver/testis isoform (Homo sapiens) (UniProt P15735); experiment: Selectivity interaction (KinomeScan (DiscoverX)) EUB0001049a PHKG2; conditions: at 1 µM
T2 sequence (whole entry): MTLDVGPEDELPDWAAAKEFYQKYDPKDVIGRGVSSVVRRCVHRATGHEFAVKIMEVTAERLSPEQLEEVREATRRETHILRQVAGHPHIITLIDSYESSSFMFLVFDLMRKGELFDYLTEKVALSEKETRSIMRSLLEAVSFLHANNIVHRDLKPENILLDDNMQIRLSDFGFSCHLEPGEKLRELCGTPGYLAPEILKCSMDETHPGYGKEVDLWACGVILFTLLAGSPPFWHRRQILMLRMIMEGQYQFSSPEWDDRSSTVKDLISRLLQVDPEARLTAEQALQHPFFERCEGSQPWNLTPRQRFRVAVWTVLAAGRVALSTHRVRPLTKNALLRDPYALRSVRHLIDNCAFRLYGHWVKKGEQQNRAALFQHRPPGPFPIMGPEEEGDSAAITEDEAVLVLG

[12] = biological target: Mitogen-activated protein kinase 3 (Homo sapiens, UniProt P27361); experiment: Selectivity interaction (KinomeScan (DiscoverX)) EUB0001049a MAPK3; conditions: at 1 µM
[13] = biological target: T3, Serine/threonine-protein kinase LATS2 (Homo sapiens) (UniProt Q9NRM7); experiment: Selectivity interaction (KinomeScan (DiscoverX)) EUB0000666a LATS2; conditions: at 10 µM
T3 sequence (whole entry): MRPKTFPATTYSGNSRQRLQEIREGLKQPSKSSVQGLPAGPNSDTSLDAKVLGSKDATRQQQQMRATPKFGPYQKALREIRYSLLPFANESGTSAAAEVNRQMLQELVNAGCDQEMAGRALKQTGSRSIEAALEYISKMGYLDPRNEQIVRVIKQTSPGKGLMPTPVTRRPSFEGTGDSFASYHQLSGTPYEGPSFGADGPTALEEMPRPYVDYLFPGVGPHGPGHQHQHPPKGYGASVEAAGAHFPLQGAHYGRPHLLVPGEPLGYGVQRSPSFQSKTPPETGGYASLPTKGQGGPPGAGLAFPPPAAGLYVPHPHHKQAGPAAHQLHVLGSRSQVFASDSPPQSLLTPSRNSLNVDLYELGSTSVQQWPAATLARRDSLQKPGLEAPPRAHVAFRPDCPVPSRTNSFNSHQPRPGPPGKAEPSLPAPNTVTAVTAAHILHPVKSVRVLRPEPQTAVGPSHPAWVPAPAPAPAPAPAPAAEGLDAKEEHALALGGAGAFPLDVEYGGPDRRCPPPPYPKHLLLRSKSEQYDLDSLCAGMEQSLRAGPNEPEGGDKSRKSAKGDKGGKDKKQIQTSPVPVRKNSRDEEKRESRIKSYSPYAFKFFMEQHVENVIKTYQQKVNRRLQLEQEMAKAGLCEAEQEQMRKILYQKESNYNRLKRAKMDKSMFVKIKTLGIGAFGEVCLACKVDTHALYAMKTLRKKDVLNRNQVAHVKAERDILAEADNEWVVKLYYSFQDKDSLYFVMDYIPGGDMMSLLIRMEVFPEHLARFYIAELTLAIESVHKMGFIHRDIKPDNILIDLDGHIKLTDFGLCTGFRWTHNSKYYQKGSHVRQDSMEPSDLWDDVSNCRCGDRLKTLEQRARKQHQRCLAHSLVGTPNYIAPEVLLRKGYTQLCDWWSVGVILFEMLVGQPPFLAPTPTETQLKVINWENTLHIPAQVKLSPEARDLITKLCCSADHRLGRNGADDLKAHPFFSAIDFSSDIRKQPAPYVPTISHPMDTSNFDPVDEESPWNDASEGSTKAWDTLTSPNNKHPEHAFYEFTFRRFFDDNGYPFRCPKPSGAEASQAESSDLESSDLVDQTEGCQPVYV

Chain of Mitogen-activated protein kinase kinase kinase 20 (Homo sapiens) (Q9NYL2 2-800 limits assumed): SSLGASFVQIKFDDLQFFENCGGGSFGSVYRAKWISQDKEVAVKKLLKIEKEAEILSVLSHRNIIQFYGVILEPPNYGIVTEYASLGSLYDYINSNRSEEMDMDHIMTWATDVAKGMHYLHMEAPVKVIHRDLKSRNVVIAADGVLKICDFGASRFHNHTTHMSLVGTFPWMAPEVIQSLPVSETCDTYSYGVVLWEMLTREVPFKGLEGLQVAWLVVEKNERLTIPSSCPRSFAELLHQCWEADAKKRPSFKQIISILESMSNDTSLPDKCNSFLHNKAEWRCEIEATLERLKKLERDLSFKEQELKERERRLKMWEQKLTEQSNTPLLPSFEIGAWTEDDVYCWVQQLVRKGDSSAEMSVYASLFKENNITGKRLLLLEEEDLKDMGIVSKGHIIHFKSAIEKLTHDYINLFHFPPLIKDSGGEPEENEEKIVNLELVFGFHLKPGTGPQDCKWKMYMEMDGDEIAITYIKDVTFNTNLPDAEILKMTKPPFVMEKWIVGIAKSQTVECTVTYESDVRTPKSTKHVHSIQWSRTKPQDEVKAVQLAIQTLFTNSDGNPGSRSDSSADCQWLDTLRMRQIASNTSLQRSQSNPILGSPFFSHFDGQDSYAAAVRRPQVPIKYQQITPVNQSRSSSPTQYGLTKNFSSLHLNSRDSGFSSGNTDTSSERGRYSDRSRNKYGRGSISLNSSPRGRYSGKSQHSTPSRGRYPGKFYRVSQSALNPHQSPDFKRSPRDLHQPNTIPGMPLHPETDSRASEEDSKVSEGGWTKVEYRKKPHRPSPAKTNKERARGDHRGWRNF
Chain of Fibroblast growth factor receptor 1 (Homo sapiens), P11362 [V561M] (P11362 whole entry V561M): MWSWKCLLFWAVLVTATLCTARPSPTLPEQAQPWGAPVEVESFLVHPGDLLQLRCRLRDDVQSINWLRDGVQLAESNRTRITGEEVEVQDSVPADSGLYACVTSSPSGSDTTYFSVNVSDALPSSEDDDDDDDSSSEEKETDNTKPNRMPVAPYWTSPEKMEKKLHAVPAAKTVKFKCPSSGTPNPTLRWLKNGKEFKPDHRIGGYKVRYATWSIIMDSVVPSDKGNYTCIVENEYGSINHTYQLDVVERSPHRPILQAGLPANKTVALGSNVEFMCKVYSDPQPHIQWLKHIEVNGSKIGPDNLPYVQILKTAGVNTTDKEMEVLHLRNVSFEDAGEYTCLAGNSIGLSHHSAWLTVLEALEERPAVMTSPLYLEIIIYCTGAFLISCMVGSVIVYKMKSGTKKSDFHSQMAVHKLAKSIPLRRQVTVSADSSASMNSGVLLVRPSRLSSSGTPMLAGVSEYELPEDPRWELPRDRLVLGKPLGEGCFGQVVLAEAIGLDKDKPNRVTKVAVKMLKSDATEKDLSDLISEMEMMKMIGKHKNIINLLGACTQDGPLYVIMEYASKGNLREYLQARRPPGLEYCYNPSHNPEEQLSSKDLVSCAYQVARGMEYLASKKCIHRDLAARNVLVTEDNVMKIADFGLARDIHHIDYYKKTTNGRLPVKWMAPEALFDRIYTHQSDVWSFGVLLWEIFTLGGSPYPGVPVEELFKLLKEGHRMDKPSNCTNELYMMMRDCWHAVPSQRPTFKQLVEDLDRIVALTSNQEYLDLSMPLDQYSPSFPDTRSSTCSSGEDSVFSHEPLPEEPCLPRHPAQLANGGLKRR
Chain of Fibroblast growth factor receptor 1 (P11362 22-822 limits assumed): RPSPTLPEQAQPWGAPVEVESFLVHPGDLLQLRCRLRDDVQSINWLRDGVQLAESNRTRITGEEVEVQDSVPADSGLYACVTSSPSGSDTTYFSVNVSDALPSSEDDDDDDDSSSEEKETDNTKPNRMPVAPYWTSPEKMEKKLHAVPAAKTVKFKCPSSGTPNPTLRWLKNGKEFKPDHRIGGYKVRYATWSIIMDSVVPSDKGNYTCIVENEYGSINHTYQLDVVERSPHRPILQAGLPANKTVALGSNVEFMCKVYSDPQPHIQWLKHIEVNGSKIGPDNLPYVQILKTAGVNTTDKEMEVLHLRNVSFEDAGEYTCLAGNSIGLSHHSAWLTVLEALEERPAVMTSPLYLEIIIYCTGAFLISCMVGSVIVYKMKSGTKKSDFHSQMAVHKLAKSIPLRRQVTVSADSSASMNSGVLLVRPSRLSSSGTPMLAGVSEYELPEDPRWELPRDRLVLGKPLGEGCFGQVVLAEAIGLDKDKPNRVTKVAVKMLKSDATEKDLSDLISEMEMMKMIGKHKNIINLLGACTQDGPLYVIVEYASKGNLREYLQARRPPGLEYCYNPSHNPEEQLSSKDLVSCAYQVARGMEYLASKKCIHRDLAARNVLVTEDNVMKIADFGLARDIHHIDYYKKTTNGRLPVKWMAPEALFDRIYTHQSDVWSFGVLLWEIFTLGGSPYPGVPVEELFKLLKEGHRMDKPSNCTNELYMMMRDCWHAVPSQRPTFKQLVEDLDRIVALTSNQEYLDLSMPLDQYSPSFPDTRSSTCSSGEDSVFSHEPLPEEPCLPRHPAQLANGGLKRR
Chain of Fibroblast growth factor receptor 2 (Homo sapiens) (P21802 22-821 limits assumed): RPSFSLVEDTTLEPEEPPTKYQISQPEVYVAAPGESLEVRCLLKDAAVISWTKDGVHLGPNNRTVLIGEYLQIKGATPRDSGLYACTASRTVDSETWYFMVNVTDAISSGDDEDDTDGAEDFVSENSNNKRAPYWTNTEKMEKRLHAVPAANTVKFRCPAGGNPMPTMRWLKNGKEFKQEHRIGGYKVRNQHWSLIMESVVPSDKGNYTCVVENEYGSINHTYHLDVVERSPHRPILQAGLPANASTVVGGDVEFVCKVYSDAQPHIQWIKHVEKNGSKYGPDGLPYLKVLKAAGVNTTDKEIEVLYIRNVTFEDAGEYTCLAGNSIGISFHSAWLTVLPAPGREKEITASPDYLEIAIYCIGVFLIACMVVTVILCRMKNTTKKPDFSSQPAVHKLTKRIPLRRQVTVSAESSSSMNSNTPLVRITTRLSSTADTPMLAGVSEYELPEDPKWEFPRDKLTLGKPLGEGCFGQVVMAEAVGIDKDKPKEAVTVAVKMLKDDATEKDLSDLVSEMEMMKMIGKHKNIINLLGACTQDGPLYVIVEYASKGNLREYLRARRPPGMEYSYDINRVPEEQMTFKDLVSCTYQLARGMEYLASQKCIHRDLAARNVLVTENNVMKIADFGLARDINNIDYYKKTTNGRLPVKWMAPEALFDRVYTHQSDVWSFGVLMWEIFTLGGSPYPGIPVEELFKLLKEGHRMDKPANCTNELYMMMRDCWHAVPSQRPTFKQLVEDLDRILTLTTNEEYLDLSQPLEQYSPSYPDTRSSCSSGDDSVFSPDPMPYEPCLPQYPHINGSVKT
Chain of Ribosomal protein S6 kinase alpha-2 (Homo sapiens) (Q15349 whole entry): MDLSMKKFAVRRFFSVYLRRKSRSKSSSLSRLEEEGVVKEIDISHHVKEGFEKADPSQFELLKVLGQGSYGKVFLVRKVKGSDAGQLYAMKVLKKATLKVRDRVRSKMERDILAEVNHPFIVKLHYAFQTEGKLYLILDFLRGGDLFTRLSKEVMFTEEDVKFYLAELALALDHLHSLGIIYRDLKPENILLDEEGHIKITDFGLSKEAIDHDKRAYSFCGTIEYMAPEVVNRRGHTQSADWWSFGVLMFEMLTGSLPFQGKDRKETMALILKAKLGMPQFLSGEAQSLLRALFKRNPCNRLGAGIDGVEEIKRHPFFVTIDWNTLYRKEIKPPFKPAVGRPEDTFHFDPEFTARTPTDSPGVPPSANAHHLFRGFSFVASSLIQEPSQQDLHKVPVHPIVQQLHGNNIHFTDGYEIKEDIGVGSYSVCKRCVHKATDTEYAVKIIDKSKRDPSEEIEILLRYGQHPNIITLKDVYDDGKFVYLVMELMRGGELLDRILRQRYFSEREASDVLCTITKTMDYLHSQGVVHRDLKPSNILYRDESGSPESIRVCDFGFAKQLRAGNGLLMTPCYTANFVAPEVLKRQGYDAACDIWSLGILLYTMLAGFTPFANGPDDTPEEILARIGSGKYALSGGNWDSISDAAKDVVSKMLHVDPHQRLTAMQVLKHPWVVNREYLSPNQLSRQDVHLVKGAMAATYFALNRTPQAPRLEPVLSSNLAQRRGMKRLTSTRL
Chain of Mitogen-activated protein kinase 3 (P27361 whole entry): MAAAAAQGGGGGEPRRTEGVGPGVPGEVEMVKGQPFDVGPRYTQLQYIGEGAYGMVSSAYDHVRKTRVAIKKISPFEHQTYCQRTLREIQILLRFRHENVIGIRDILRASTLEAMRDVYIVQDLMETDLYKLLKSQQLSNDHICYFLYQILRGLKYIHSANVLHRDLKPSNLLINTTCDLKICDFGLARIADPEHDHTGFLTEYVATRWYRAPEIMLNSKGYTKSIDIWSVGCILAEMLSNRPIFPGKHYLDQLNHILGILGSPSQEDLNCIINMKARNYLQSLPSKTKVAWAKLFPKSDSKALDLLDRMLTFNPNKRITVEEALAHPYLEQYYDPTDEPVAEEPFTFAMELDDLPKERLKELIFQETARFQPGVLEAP
Chain of Kappa-type opioid receptor (P41145 whole entry): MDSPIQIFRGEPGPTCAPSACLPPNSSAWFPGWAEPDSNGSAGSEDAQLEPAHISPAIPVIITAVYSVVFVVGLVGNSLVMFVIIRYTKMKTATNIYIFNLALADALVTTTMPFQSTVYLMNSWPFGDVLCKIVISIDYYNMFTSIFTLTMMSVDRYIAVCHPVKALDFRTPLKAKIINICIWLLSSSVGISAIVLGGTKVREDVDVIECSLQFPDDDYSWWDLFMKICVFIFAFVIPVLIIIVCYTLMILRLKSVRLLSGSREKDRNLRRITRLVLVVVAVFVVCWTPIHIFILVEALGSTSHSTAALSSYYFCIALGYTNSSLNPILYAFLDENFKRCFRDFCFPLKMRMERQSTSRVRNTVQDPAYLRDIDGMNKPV

% of inhibition [1]: 50%
Compound: CCc1cc(Nc2nccc(-c3c(-c4ccc(OC)c(C(=O)Nc5c(F)cccc5F)c4)nc4ccccn34)n2)c(OC)cc1N1CCC(N2CCN(S(C)(=O)=O)CC2)CC1

Compound: Nc1cnc(N2CCc3cc(S(=O)(=O)Nc4c(F)cc(Cl)cc4F)cc(N4CCCC4=O)c32)nc1 [TP-020n]
% of control [2]: 100%
% of control [3]: 100%
% of inhibition [4]: 14.9%

Compound: CNC(=O)Nc1ccc(-c2nc(N3CC4CCC(C3)O4)c3cnn(C4CCC5(CC4)OCCO5)c3n2)cc1
% of control [5]: 77%
% of inhibition [6]: 11%

Compound: COCC(=O)NC/C=C/c1ccc2ncnc(Nc3ccc(Oc4ccc(C)nc4)c(C)c3)c2c1 [CP-724714]
% of control [7]: 76%

% activity ([8]; at 1 µM): > 90%
% activity ([8]; at 10 µM): > 80%
Compound: Cc1cc(CN)cc(C)c1-c1ncn(C)c1-c1cncn1C

% of control ([9]; at 1 µM): 99%
% of control ([9]; at 5 µM): 65%
% of control ([10]; at 1 µM): 105%
% of control ([10]; at 5 µM): 87%
Compound: C=CC(=O)Nc1cccc(C(=O)Nc2ccc(Nc3cc(-c4[nH]c(SC)nc4C)ccn3)cc2)c1

Compound: COc1cc(Nc2nc(C)cc(-c3cnn4nc(OC)ccc34)n2)cc(C(F)(F)F)c1
% of control [11]: 100%
% of control [12]: 98%

Compound: O=C(NOC[C@H](O)CO)c1ccc(F)c(F)c1Nc1ccc(I)cc1F
% of control [13]: 74%
